Experimental findings from PubChem BioAssay (NCI) are described below.

Among the test systems are BT-549 breast; MOLT-4 leukemia; SK-MEL-5 melanoma; MDA-MB-231 breast; ACHN renal; M14 melanoma; HL-60(TB) leukemia; KM12 colon; SNB-19 CNS; CCRF-CEM leukemia.
What all share (assay): NCI anticancer screen, dose series, 48 h

Molecules are shown by their SMILES.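 Grown in 96-well plates, cells were treated for 48 hours with each compound at five concentrations. Insufficient inhibition: endpoint recorded as highest concentration tested. At the GI50, growth is halved. At the TGI there is no net growth.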

Consider `CCN(CC)CCn1ccc(=O)c2cc3c(=O)ccn(CCN(CC)CC)c3c(C)c21`, for which the TGI was 29.2 µM in the test with BT-549 breast; over 100 µM in the test with MOLT-4 leukemia; 29.1 µM with SK-MEL-5 melanoma; 18.3 µM with MDA-MB-231 breast; 20.1 µM with ACHN renal; 22.5 µM with M14 melanoma. The TGI with HL-60(TB) leukemia came out at 3.54 µM; with KM12 colon, 2.61 µM; in the test with SNB-19 CNS it was 18.3 µM; in the test on CCRF-CEM leukemia, 29.6 µM.
For the molecule `CCCCOc1ccc(NC(N)=Nc2ccc(Cl)cc2)cc1`, the TGI in the test with BT-549 breast was 23.4 µM; with MOLT-4 leukemia, over 42 µM; with SK-MEL-5 melanoma, 2.1 µM; in the test on MDA-MB-231 breast, 27.2 µM; with ACHN renal, 12.7 µM; with M14 melanoma, 11.6 µM. For the same molecule, the TGI is 22.5 µM in the test with HL-60(TB) leukemia, 26.1 µM with KM12 colon, 20 µM in the test on SNB-19 CNS and over 35.7 µM in the test with CCRF-CEM leukemia.
Take `COc1c2c(c3c(c1CCC(=O)O)OC(C)(C)C=C3)OC(C)(C)C=C2`: the TGI in the test with BT-549 breast, with MOLT-4 leukemia, with SK-MEL-5 melanoma, with MDA-MB-231 breast, in the test on ACHN renal and in the test on M14 melanoma was over 100 µM throughout. Moreover, the TGI with HL-60(TB) leukemia, in the test with KM12 colon and in the test on SNB-19 CNS was over 100 µM in each case.
For the molecule `COC(=O)/C=C/C=C(c1ccccc1)c1ccccc1`, the GI50 was 3.4 µM with BT-549 breast; 14.2 µM in the test with MOLT-4 leukemia; 3.43 µM in the test on SK-MEL-5 melanoma; 11.1 µM in the test with MDA-MB-231 breast; 5.56 µM with ACHN renal; 3.36 µM in the test on M14 melanoma. In addition, the GI50 in the test on HL-60(TB) leukemia was 3.26 µM; in the test with KM12 colon, 3.67 µM; in the test on SNB-19 CNS it was 9.31 µM; in the test with CCRF-CEM leukemia, 6.48 µM. Also, the TGI in the test on BT-549 breast is 19.6 µM; with MOLT-4 leukemia it was over 100 µM; in the test with SK-MEL-5 melanoma it was 13.8 µM; in the test on MDA-MB-231 breast, 36 µM; in the test on ACHN renal it was over 100 µM; in the test on M14 melanoma, 17.5 µM. Besides, the TGI with HL-60(TB) leukemia was 26.1 µM; in the test with KM12 colon, 27.4 µM; with SNB-19 CNS, over 100 µM; with CCRF-CEM leukemia, over 100 µM.
For the molecule `COc1cccc(/C=C/C(=O)c2cccc(Nc3nc(Nc4ccccc4)nc(Nc4ccccc4)n3)c2)c1`, the GI50 in the test on BT-549 breast is 21.7 µM; with MOLT-4 leukemia, 3.86 µM; in the test with SK-MEL-5 melanoma, 13 µM; in the test with MDA-MB-231 breast, 32.7 µM; in the test on ACHN renal it was 67.3 µM; in the test with M14 melanoma it was 19.3 µM. The GI50 with HL-60(TB) leukemia is 10.5 µM; in the test with KM12 colon it was 3.88 µM; in the test with SNB-19 CNS, over 56.9 µM; in the test with CCRF-CEM leukemia, 5.26 µM. In addition, the TGI in the test on BT-549 breast was over 72.1 µM; with MOLT-4 leukemia it was 26.3 µM; with SK-MEL-5 melanoma it was over 77.1 µM; with MDA-MB-231 breast, over 100 µM; in the test on ACHN renal, over 100 µM; in the test with M14 melanoma, over 72.2 µM. Further, the TGI in the test with HL-60(TB) leukemia was 43.6 µM; in the test with KM12 colon it was 18.3 µM; in the test with SNB-19 CNS, over 100 µM; with CCRF-CEM leukemia, 45.5 µM.
Consider `CCNC(=O)Nc1ccccn1`, for which the TGI in the test on BT-549 breast, in the test on MOLT-4 leukemia, in the test on SK-MEL-5 melanoma, in the test on MDA-MB-231 breast, in the test with ACHN renal and with M14 melanoma was over 100 µM each time. Moreover, the TGI in the test with HL-60(TB) leukemia, in the test on KM12 colon, in the test on SNB-19 CNS and in the test on CCRF-CEM leukemia was over 100 µM throughout.
For `Nc1c(C(=O)Nc2cccc([N+](=O)[O-])c2)sc2nc3c(cc12)C(O)CCC3` (stereo unspecified), the GI50 is 7.76 µM in the test with BT-549 breast; 5.74 µM with MOLT-4 leukemia; 3.59 µM with SK-MEL-5 melanoma; 21.3 µM in the test on MDA-MB-231 breast; 30.6 µM in the test with ACHN renal; 3.39 µM in the test on M14 melanoma. In addition, the GI50 is 2.37 µM in the test with HL-60(TB) leukemia, 3.5 µM in the test on KM12 colon and 18.7 µM with SNB-19 CNS. Moreover, the TGI with BT-549 breast is 57.3 µM; in the test on MOLT-4 leukemia it was over 100 µM; in the test on SK-MEL-5 melanoma, over 100 µM; in the test with MDA-MB-231 breast it was over 100 µM; in the test with ACHN renal it was over 100 µM; with M14 melanoma, over 100 µM. The TGI with HL-60(TB) leukemia, with KM12 colon and with SNB-19 CNS was over 100 µM in each case.
Take `CC1SC(c2c(Cl)cccc2Cl)N(NC(=O)c2[nH]c3ccc(F)cc3c2-c2ccccc2)C1=O` (stereo unspecified): the GI50 in the test on BT-549 breast is 5.04 µM; with MOLT-4 leukemia, 13.2 µM; with SK-MEL-5 melanoma, 2.72 µM; with MDA-MB-231 breast it was 2.13 µM; with ACHN renal, 2.82 µM; in the test with M14 melanoma, 3.96 µM. The GI50 was 67.5 µM in the test with HL-60(TB) leukemia, 3.53 µM in the test on KM12 colon, 2.17 µM with SNB-19 CNS and 4.79 µM with CCRF-CEM leukemia. Moreover, the TGI stood at 28.5 µM in the test with BT-549 breast; 64.7 µM in the test on MOLT-4 leukemia; 11.9 µM in the test with SK-MEL-5 melanoma; 4.28 µM with MDA-MB-231 breast; 8.35 µM in the test on ACHN renal; 30.2 µM in the test with M14 melanoma. In addition, the TGI is over 100 µM in the test on HL-60(TB) leukemia, 20.9 µM with KM12 colon, 5.82 µM with SNB-19 CNS and 42.5 µM in the test on CCRF-CEM leukemia.
As to `OC[C@@H](O)[C@H]1NC[C@@H](O)[C@H]1O`, the TGI in the test with BT-549 breast, in the test on MOLT-4 leukemia, with SK-MEL-5 melanoma, in the test on ACHN renal, with M14 melanoma and in the test on HL-60(TB) leukemia was over 100 µM in each case. Moreover, the TGI with KM12 colon, in the test with SNB-19 CNS and in the test on CCRF-CEM leukemia was over 100 µM throughout.
Consider `C=C1C(=O)O[C@H]2[C@H]1CC/C(COC(=O)NCc1ccccc1OC)=C\CC[C@@]1(C)O[C@@H]21`, for which the GI50 was 1.25 µM with BT-549 breast; 2.53 µM with MOLT-4 leukemia; 2.86 µM in the test with SK-MEL-5 melanoma; 1.47 µM with MDA-MB-231 breast; 1.27 µM in the test with ACHN renal; 1.1 µM in the test on M14 melanoma. For the same molecule, the GI50 in the test on HL-60(TB) leukemia was 1.61 µM; with KM12 colon, 3.53 µM; with SNB-19 CNS it was 1.57 µM; in the test with CCRF-CEM leukemia it was 0.482 µM. The TGI in the test on BT-549 breast amounted to 2.55 µM; in the test with MOLT-4 leukemia it was 6.13 µM; in the test on SK-MEL-5 melanoma, 8.03 µM; with MDA-MB-231 breast, 3.49 µM; in the test on ACHN renal, 2.85 µM; in the test on M14 melanoma, 2.56 µM. Also, the TGI in the test with HL-60(TB) leukemia is 5.77 µM; in the test with KM12 colon it was 13.6 µM; in the test on SNB-19 CNS it was 3.47 µM; in the test with CCRF-CEM leukemia, 4.7 µM.
